Reference: patent US20170325452A1, “Active compound combinations” (BAYER CROPSCIENCE AKTIENGESELLSCHAFT, priority 2014, published 2017)

Tests used:
Venturia inaequalis = experiment: in vivo preventive test on Venturia test (apples); settings: single active compound
Description: (§1) A synergistic effect of fungicides is always present when the fungicidal activity of the active compound combinations exceeds the total of the activities of the active compounds when applied individually. The expected activity for a given combination of two active compounds can be calculated as follows (cf. Colby, S. R., “Calculating Synergistic and Antagonistic Responses of Herbicide Combinations”, Weeds 1967, 15, 20-22):
(§2) • X is the efficacy when active compound A is applied at an application rate of m ppm (or g/ha), • Y is the efficacy when active compound B is applied at an application rate of n ppm (or g/ha), • E is the efficacy when the active compounds A and B are applied at application rates of m and n ppm (or g/ha), respectively, and then
(§3) The degree of efficacy, expressed in % is denoted. 0% means an efficacy which corresponds to that of the control while an efficacy of 100% means that no disease is observed.
Example: In Vivo Preventive Test on Venturia Test (Apples)
(§4) • Solvent: 24.5 parts by weight of acetone • 24.5 parts by weight of dimethylacetamide • Emulsifier: 1 part by weight of alkylaryl polyglycol ether
(§5) To produce a suitable preparation of active compound, 1 part by weight of active compound is mixed with the stated amounts of solvent and emulsifier, and the concentrate is diluted with water to the desired concentration.
To test for preventive activity, young plants are sprayed with the preparation of active compound at the stated rate of application. After the spray coating has dried on, the plants are inoculated with an aqueous conidia suspension of the causal agent of apple scab (Venturia inaequalis) and then remain for 1 day in an incubation cabinet at approximately 20° C. and a relative atmospheric humidity of 100%.
The plants are then placed in a greenhouse at approximately 21° C. and a relative atmospheric humidity of approximately 90%.
(§6) The test is evaluated 10 days after the inoculation. 0% means an efficacy which corresponds to that of the untreated control, while an efficacy of 100% means that no disease is observed.

Botrytis cinerea = experiment: in vivo preventive test on Botrytis test (beans); settings: single active compound, the 3rd table
Description: as §1, §2, §3
Example: In Vivo Preventive Test on Botrytis Test (Beans)
as §4, §5
To test for preventive activity, young plants are sprayed with the preparation of active compound. After the spray coating has dried on, 2 small pieces of agar covered with growth of Botrytis cinerea are placed on each leaf. The inoculated plants are placed in a darkened chamber at 20° C. and a relative atmospheric humidity of 100%.
2 days after the inoculation, the size of the lesions on the leaves is evaluated. 0% means an efficacy which corresponds to that of the untreated control, while an efficacy of 100% means that no disease is observed.

Alternaria solani = experiment: in vivo preventive test on Alternaria test (tomatoes); settings: single active compound
Description: as §1, §2, §3
Example: In Vivo Preventive Test on Alternaria Test (Tomatoes)
as §4, §5
To test for preventive activity, young plants are sprayed with the preparation of active compound at the stated rate of application. After the spray coating has dried on, the plants are inoculated with an aqueous spore suspension of Alternaria solani. The plants are then placed in an incubation cabinet at approximately 20° C. and a relative atmospheric humidity of 100%.
The test is evaluated 3 days after the inoculation. 0% means an efficacy which corresponds to that of the untreated control while an efficacy of 100% means that no disease is observed.

Phakopsora pachyrhizi = experiment: in vivo preventive test on Phakopsora test (soybeans); settings: single active compound
Description: as §1, §2, §3
Example: In Vivo Preventive Test on Phakopsora Test (Soybeans)
as §4, §5
To test for preventive activity, young plants are sprayed with the preparation of active compound at the stated rate of application. After the spray coating has dried on, the plants are inoculated with an aqueous spore suspension of the causal agent of soybean rust (Phakopsora pachyrhizi) and stay for 24 h without light in an incubation cabinet at approximately 24° C. and a relative atmospheric humidity of 95%.
The plants remain in the incubation cabinet at approximately 24° C. and a relative atmospheric humidity of approximately 80% and a day/night interval of 12 h.
The test is evaluated 7 days after the inoculation. 0% means an efficacy which corresponds to that of the untreated control, while an efficacy of 100% means that no disease is observed.

Uromyces appendiculatus = experiment: in vivo preventive test on Uromyces test (beans); settings: single active compound, the 7th table
Description: as §1, §2, §3
Example: In Vivo Preventive Test on Uromyces Test (Beans)
as §4
To produce a suitable preparation of active compound, 1 part by weight of active compound is mixed with the stated amounts of solvent and emulsifier, and the concentrate is diluted with water to the desired concentration. To test for preventive activity, young plants are sprayed with the preparation of active compound at the stated rate of application. After the spray coating has dried on, the plants are inoculated with an aqueous spore suspension of the causal agent of bean rust (Uromyces appendiculatus) and then remain for 1 day in an incubation cabinet at approximately 20° C. and a relative atmospheric humidity of 100%. The plants are then placed in a greenhouse at approximately 21° C. and a relative atmospheric humidity of approximately 90%.
as §6

CO/C=C(/C(=O)OC)c1ccccc1Oc1cc(Oc2ccccc2C#N)ncn1 [1.3, azoxystrobin]
Efficacy in % found (Venturia inaequalis; 0.5 ppm a.i., the 8th table): 25%
Efficacy in % found (Venturia inaequalis; 0.5 ppm a.i., the 9th table): 88%
Efficacy in % found (Venturia inaequalis; 1 ppm a.i., the 8th table): 30%
Efficacy in % found (Venturia inaequalis; 1 ppm a.i., the 9th table): 94%
Efficacy in % found (Botrytis cinerea; 0.25 ppm a.i.): 30%
Efficacy in % found (Botrytis cinerea; 0.5 ppm a.i.): 15%
Efficacy in % found (Alternaria solani; 0.25 ppm a.i., the 1st table): 45%
Efficacy in % found (Alternaria solani; 0.25 ppm a.i., the 2nd table): 35%
Efficacy in % found (Alternaria solani; 0.5 ppm a.i., the 1st table): 35%
Efficacy in % found (Alternaria solani; 0.5 ppm a.i., the 2nd table): 8%
Efficacy in % found (Alternaria solani; 1 ppm a.i., the 1st table): 65%
Efficacy in % found (Alternaria solani; 1 ppm a.i., the 2nd table): 15%
Efficacy in % found (Phakopsora pachyrhizi; 0.25 ppm a.i., the 4th table): 0%
Efficacy in % found (Phakopsora pachyrhizi; 0.25 ppm a.i., the 5th table): 16%
Efficacy in % found (Phakopsora pachyrhizi; 0.5 ppm a.i., the 4th table): 18%
Efficacy in % found (Phakopsora pachyrhizi; 0.5 ppm a.i., the 5th table): 41%

CON=C(C(=O)OC)c1ccccc1CON=C(C)c1cccc(C(F)(F)F)c1 [1.22, trifloxystrobin]
Efficacy in % found (Venturia inaequalis; 0.25 ppm a.i., the 10th table): 0%
Efficacy in % found (Venturia inaequalis; 0.5 ppm a.i., the 10th table): 5%
Efficacy in % found (Venturia inaequalis; 1 ppm a.i., the 10th table): 5%
Efficacy in % found (Alternaria solani; 0.25 ppm a.i., the 1st table): 8%
Efficacy in % found (Alternaria solani; 0.5 ppm a.i., the 1st table): 24%
Efficacy in % found (Alternaria solani; 1 ppm a.i., the 1st table): 35%
Efficacy in % found (Uromyces appendiculatus; 0.25 ppm a.i.): 0%
Efficacy in % found (Uromyces appendiculatus; 1 ppm a.i.): 0%
Efficacy in % found (Phakopsora pachyrhizi; 0.25 ppm a.i., the 6th table): 0%
Efficacy in % found (Phakopsora pachyrhizi; 0.5 ppm a.i., the 6th table): 0%
Efficacy in % found (Phakopsora pachyrhizi; 1 ppm a.i., the 6th table): 0%

CO/C=C(/C(=O)OC)c1ccccc1COc1cccc(C(F)(F)F)n1 [1.16, picoxystrobin]
Efficacy in % found (Venturia inaequalis; 0.5 ppm a.i., the 9th table): 13%
Efficacy in % found (Botrytis cinerea; 0.25 ppm a.i.): 40%
Efficacy in % found (Botrytis cinerea; 0.5 ppm a.i.): 40%
Efficacy in % found (Alternaria solani; 0.25 ppm a.i., the 1st table): 30%
Efficacy in % found (Alternaria solani; 0.25 ppm a.i., the 2nd table): 8%
Efficacy in % found (Alternaria solani; 0.5 ppm a.i., the 1st table): 30%
Efficacy in % found (Alternaria solani; 0.5 ppm a.i., the 2nd table): 8%
Efficacy in % found (Alternaria solani; 1 ppm a.i., the 1st table): 50%
Efficacy in % found (Alternaria solani; 1 ppm a.i., the 2nd table): 35%
Efficacy in % found (Phakopsora pachyrhizi; 0.25 ppm a.i., the 4th table): 0%
Efficacy in % found (Phakopsora pachyrhizi; 0.25 ppm a.i., the 5th table): 0%
Efficacy in % found (Phakopsora pachyrhizi; 0.5 ppm a.i., the 4th table): 24%
Efficacy in % found (Phakopsora pachyrhizi; 0.5 ppm a.i., the 5th table): 0%
Efficacy in % found (Phakopsora pachyrhizi; 1 ppm a.i., the 4th table): 9%
Efficacy in % found (Phakopsora pachyrhizi; 1 ppm a.i., the 5th table): 62%

CC[C@@H]1CC(C)(C)c2cccc(NC(=O)c3cccnc3C(F)F)c21 [(I-4), 2-(difluoromethyl)-N-[(3R)-3-ethyl-1,1-dimethyl-2,3-dihydro-1H-inden-4-yl]nicotinamide]
Efficacy in % found (Venturia inaequalis; 0.25 ppm a.i., the 8th table): 10%
Efficacy in % found (Venturia inaequalis; 1 ppm a.i., the 10th table): 37%
Efficacy in % found (Botrytis cinerea; 0.5 ppm a.i.): 15%
Efficacy in % found (Phakopsora pachyrhizi; 0.5 ppm a.i., the 4th table): 87%
Efficacy in % found (Phakopsora pachyrhizi; 1 ppm a.i., the 4th table): 87%

CCC1CC(C)(C)c2cccc(NC(=O)c3cccnc3C(F)F)c21 (stereo not drawn) [(I-3), 2-(difluoromethyl)-N-(3-ethyl-1,1-dimethyl-2,3-dihydro-1H-inden-4-yl)nicotinamide]
Efficacy in % found (Venturia inaequalis; 0.25 ppm a.i., the 8th table): 10%
Efficacy in % found (Venturia inaequalis; 1 ppm a.i., the 8th table): 13%
Efficacy in % found (Venturia inaequalis; 1 ppm a.i., the 10th table): 15%
Efficacy in % found (Phakopsora pachyrhizi; 0.5 ppm a.i., the 6th table): 28%
Efficacy in % found (Phakopsora pachyrhizi; 1 ppm a.i., the 6th table): 38%

CCC[C@@H]1CC(C)(C)c2cccc(NC(=O)c3cccnc3C(F)F)c21 [(I-6), 2-(difluoromethyl)-N-[(3R)-1,1-dimethyl-3-propyl-2,3-dihydro-1H-inden-4-yl]nicotinamide]
Efficacy in % found (Alternaria solani; 0.5 ppm a.i., the 1st table): 30%
Efficacy in % found (Phakopsora pachyrhizi; 0.25 ppm a.i., the 5th table): 95%
Efficacy in % found (Phakopsora pachyrhizi; 1 ppm a.i., the 5th table): 93%

CCCC1CC(C)(C)c2cccc(NC(=O)c3cccnc3C(F)F)c21 (stereo not drawn) [(I-5), 2-(difluoromethyl)-N-(1,1-dimethyl-3-propyl-2,3-dihydro-1H-inden-4-yl)nicotinamide]
Efficacy in % found (Venturia inaequalis; 1 ppm a.i., the 10th table): 10%
Efficacy in % found (Uromyces appendiculatus; 0.25 ppm a.i.): 93%
